The values below come from US10899932B2, “Non-amphoteric, quaternisable and water-soluble polymers for modifying the surface charge of solid particles” (priority 2014, dated 2021).

SMILES strings stand for the structures.

The series in a line: Zeta potential measurement of aqueous suspensions of powders (Coulter DELSA 440 SX). It is filed as physicochemical. The conditions noted are these: aqueous suspension, pH 4. The source says: The zeta potential can be determined directly from the direction and velocity of migration of the dispersed particles in an electrical field, on the basis of the following relation:
[formula] • ζ=zeta potential (in mV) • ε=dielectric constant of the dispersion medium • v=electrophoretic migration velocity (in cm/s) • η=viscosity of the dispersion medium (poise, 1 poise=0.1 Pa·s) • E=field strength (in […]) • f=numerical factor (friction factor), dependent on the shape of the particles, their conductivity, and the size of the particles in comparison to the thickness of the diffuse double layer
The migration velocity here is measured, depending on the size of the particles under investigation, either by means of observation through a light microscope or, particularly in the case of relatively small particles, by means of laser correlation spectroscopy.
The zeta potential of the aqueous suspensions of boron nitride, silicon carbide, diamond, deltamethrin and azoxystrobin powders, all produced in analogy to the example above, was determined as follows. The measurement took place with a Coulter DELSA 440 SX instrument. […] This reversal of the original surface charge was verified for the inventive particles by the experimental measurements below.

Compound `CC1(C)[C@H](C(=O)O[C@H](C#N)c2cccc(Oc3ccccc3)c2)[C@@H]1C=C(Br)Br` [CE7, Deltamethrin] gave a Zeta potential of −32 mV.

For the compound `CO/C=C(/C(=O)OC)c1ccccc1Oc1cc(Oc2ccccc2C#N)ncn1` [CE8, Azoxystrobin], the Zeta potential is −36 mV.
